Test results reported in patent publication US20260158102A1, “CYCLIC PEPTIDE DERIVATIVE COMPOSITION FOR TREATING OR PREVENTING NEUROPATHIC PAIN AND/OR INFLAMMATORY PAIN” (DKS Co. Ltd., priority 2022, published 2026).

Assay: Observation of general condition in rat STZ-induced diabetes model
Assay type: in vivo
Details: number of animals, 10 per group
Procedure: Compound 9 (50 mg/mL) was diluted with water for injection to obtain a 1 mg/mL administration specimen. For the specimens to be administered at 0.1 mg/mL and 0.01 mg/mL, the specimen to be administered at 1 mg/mL was diluted stepwise with water for injection. Each administration specimen was divided into PP disposable tubes every day and stored in a storehouse (freezer: MDF-MU339H-PJ, PHC Corporation) under the condition of freezing (−30° C. to −20° C., measured value: −26.4 to −24.5° C.). Preparation was performed on the day before the start of administration.
Water for injection was added to and dissolved in Pregabalin taken out from the capsule to obtain 2 mg/mL. It was prepared before use.
• Animal species: rat (SPF) • Strain: Crl: CD (SD) • Date of animal acquisition, gender, age in weeks, number of animals acquired, and weight range after 1 day of acquisition • First and second courses: Apr. 6, 2022, male, 7 weeks old, 35 animals, 217 to 237 g • Third and fourth courses: Apr. 13, 2022, male, 7 weeks old, 35 animals, 216 to 235 g • Source: […].
• Dose volume: calculated at 2 mL/kg based on the body weight on the day of administration. • Number of times of administration: once • Day of administration: 7 days before the day of starting administration of the test substance.
• Dose volume: calculated at 1 mL/kg based on the body weight on the day of administration. • Number of times of administration: 9 times • Interval of administration: once every 3 days (evaluation was performed on the day after administration) • Day of starting administration: day 8 of STZ administration (day of STZ administration is counted as day 1).
• Dose volume: calculated at 10 mL/kg based on the body weight on the day of administration. • Number of times of administration: Administration was performed once on the day of evaluation of neuropathic pain, twice in total, and on the other days of administration, a vehicle for a control substance (water for injection) was orally administered.
• Observation of general condition • Observation was performed once a day.

Measured: general condition

CC[C@@]1(C)Oc2cc(ccc2O)C[C@H](NC)C(=O)N[C@@H](C(C)C)C(=O)N[C@@H]1C(=O)N[C@@H](CC(=O)O)C(=O)O [Compound 9]
10: 0.1 mg/kg iv, day 9 of STZ administration | 0.1 mg/kg iv, day 10 of STZ administration | 0.1 mg/kg iv, day 11 of STZ administration | 0.1 mg/kg iv, day 12 of STZ administration | 0.1 mg/kg iv, day 13 of STZ administration | 0.1 mg/kg iv, day 14 of STZ administration | 0.1 mg/kg iv, day 15 of STZ administration | 0.1 mg/kg iv, day 16 of STZ administration | 0.1 mg/kg iv, day 17 of STZ administration | 0.1 mg/kg iv, day 18 of STZ administration | 0.1 mg/kg iv, day 19 of STZ administration | 0.1 mg/kg iv, day 20 of STZ administration | 0.1 mg/kg iv, day 21 of STZ administration | 0.1 mg/kg iv, day 22 of STZ administration | 0.1 mg/kg iv, day 23 of STZ administration | 0.1 mg/kg iv, day 24 of STZ administration | 0.1 mg/kg iv, day 25 of STZ administration | 0.1 mg/kg iv, day 26 of STZ administration | 0.1 mg/kg iv, day 27 of STZ administration | 0.1 mg/kg iv, day 28 of STZ administration | 0.1 mg/kg iv, day 29 of STZ administration | 0.1 mg/kg iv, day 30 of STZ administration | 0.1 mg/kg iv, day 31 of STZ administration | 0.1 mg/kg iv, day 32 of STZ administration | 0.1 mg/kg iv, day 33 of STZ administration | 0.1 mg/kg iv, day 34 of STZ administration | 0.1 mg/kg iv, day 35 of STZ administration | 1 mg/kg iv, day 1 of STZ administration | 1 mg/kg iv, day 2 of STZ administration | 1 mg/kg iv, day 3 of STZ administration | 1 mg/kg iv, day 4 of STZ administration | 1 mg/kg iv, day 5 of STZ administration | 1 mg/kg iv, day 6 of STZ administration | 1 mg/kg iv, day 7 of STZ administration | 1 mg/kg iv, day 8 of STZ administration | 1 mg/kg iv, day 9 of STZ administration | 1 mg/kg iv, day 10 of STZ administration | 1 mg/kg iv, day 11 of STZ administration | 1 mg/kg iv, day 12 of STZ administration | 1 mg/kg iv, day 13 of STZ administration | 1 mg/kg iv, day 14 of STZ administration | 1 mg/kg iv, day 15 of STZ administration | 1 mg/kg iv, day 16 of STZ administration | 1 mg/kg iv, day 17 of STZ administration | 1 mg/kg iv, day 18 of STZ administration | 1 mg/kg iv, day 19 of STZ administration | 1 mg/kg iv, day 20 of STZ administration | 1 mg/kg iv, day 21 of STZ administration | 1 mg/kg iv, day 22 of STZ administration | 1 mg/kg iv, day 28 of STZ administration | 1 mg/kg iv, day 29 of STZ administration | 1 mg/kg iv, day 30 of STZ administration | 1 mg/kg iv, day 31 of STZ administration | 1 mg/kg iv, day 32 of STZ administration | 1 mg/kg iv, day 33 of STZ administration | 1 mg/kg iv, day 34 of STZ administration | 1 mg/kg iv, day 35 of STZ administration
